Usually Ki stands for the dissociation constant of the complex between target and ligand, obtained from inhibition or displacement.

The test system of assay [1] is H929 human cancer cell lines. The assay can be described thus: Cellular viability / proliferation (Cell TiterGlo, 72 h). The conditions noted are these: Homo sapiens, NCI-H929, 72 h, read-out: GI50 on cellular proliferation of H929 human cancer cell lines, H929 cells, 72 h, Cell TiterGlo, 10% FBS. The assay is classed as cell-based. A digest of the protocol: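 Top dose 50 μM, serially diluted 2-fold, applied one day after seeding (1,000 cells/well, 10% FBS), DMSO below 1%.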
(Cellular ATP, detected with luciferase, serves as a proxy for viable cell number.)

A further assay concerns the target Mcl-1 (Homo sapiens (Human), UniProt Q07820). Kind of assay: Fluorescence polarization anisotropy (FPA) competition assay, FITC-Bak or FITC-Bim BH3 peptide. The assay is classed as binding. The conditions noted are these: read-out: Ki for Inhibition of Mcl-1 by FPA assay. In general terms: Polarisation of emitted light reports the rotation of a fluorescent probe.

Chain of Mcl-1 (Q07820 172-327): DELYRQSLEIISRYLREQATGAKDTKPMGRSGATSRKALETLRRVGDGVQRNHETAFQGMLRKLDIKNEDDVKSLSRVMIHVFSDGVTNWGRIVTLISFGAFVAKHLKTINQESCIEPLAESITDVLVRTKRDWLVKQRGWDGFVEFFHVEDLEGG

For `Cc1cc(OCCCc2c3n(c4c(-c5c(C)nc(CN(C)C)nc5C)c(Cl)ccc24)[C@H](C)CN(c2cn(C)c4ccc(C(=O)O)cc24)C3=O)cc(C)c1Cl` [Example 451, (R)-3-(7-Chloro-10-(3-(4-chloro-3,5-dimethylphenoxy)propyl)-6-(2-((dimethylamino)methyl)-4,6-dimethylpyrimidin-5-yl)-4-methyl-1-oxo-3,4-dihydropyrazino[1,2-a]indol-2(1H)-yl)-1-methyl-1H-indole-5-carboxylic acid], the GI50 in assay [1] is under 200 nM. The Ki on Mcl-1 was under 1 nM.

Consider `Cc1cc(N2C[C@@H](C)n3c(c(CCCOc4cc(C)c(Cl)c(C)c4)c4ccc(Cl)c(-c5c(C)nn(CC6CCOCC6)c5C)c43)C2=O)c2c(c1)cc(C(=O)O)n2C` [Example 452, (R)-7-(7-Chloro-10-(3-(4-chloro-3,5-dimethylphenoxy)propyl)-6-(3,5-dimethyl-1-((tetrahydro-2H-pyran-4-yl)methyl)-1H-pyrazol-4-yl) 4-methyl-1-oxo-3,4-dihydropyrazino[1,2-a]indol-2(1H)-yl)-1,5-dimethyl-1H-indole-2-carboxylic acid], for which the GI50 in assay [1] came to 380 nM. Further, the Ki at Mcl-1 turned out to be 2.2 nM.

For `Cc1cc(OCCCc2c3n(c4c(-c5c(C)nn(C)c5C)c(Cl)ccc24)[C@H](C)CN(c2cc(OCCN4CCN(C)CC4)cc4cc(C(=O)O)n(C)c24)C3=O)cc(C)c1Cl` [Example 453, (R)-7-(7-Chloro-10-(3-(4-chloro-3,5-dimethylphenoxy)propyl)-4-methyl-1-oxo-6-(1,3,5-trimethyl-1H-pyrazol-4-yl)-3,4-dihydropyrazino[1,2-a]indol-2(1H)-yl)-1-methyl-5-(2-(4-methylpiperazin-1-yl)ethoxy)-1H-indole-2-carboxylic acid], the GI50 in assay [1] was found to be 330 nM. Further, the Ki at Mcl-1 is 1.7 nM.

With `Cc1cc(OCCCc2c3n(c4c(-c5c(C)nn(C)c5C)c(Cl)ccc24)[C@H](C)CN(c2cn(C)c4ccc(-c5ncn(CC(C)C)n5)cc24)C3=O)cc(C)c1Cl` [Example 454, (R)-7-Chloro-10-(3-(4-chloro-3,5-dimethylphenoxy)propyl)-2-(5-(1-isobutyl-1H-1,2,4-triazol-3-yl)-1-methyl-1H-indol-3-yl)-4-methyl-6-(1,3,5-trimethyl-1H-pyrazol-4-yl)-3,4-dihydropyrazino[1,2-a]indol-1(2H)-one], in assay [1], the GI50 came to 2100 nM. In addition, at Mcl-1, the Ki is 3.5 nM.

On to `Cc1cc(OCCCc2c3n(c4c(-c5c(C)nn(C)c5C)c(Cl)ccc24)[C@H](C)CN(c2cc(OCCN(C)C)cc4cc(C(=O)O)n(C)c24)C3=O)cc(C)c1Cl` [Example 455, (R)-7-(7-Chloro-10-(3-(4-chloro-3,5-dimethylphenoxy)propyl)-4-methyl-1-oxo-6-(1,3,5-trimethyl-1H-pyrazol-4-yl)-3,4-dihydropyrazino[1,2-a]indol-2(1H)-yl)-5-(2-(dimethylamino)ethoxy)-1-methyl-1H-indole-2-carboxylic acid], for which the GI50 in assay [1] came out at 220 nM. The Ki at Mcl-1 is under 1 nM.

`Cc1ccnc(Cn2c(C(=O)O)cc3cc(C)cc(N4C[C@@H](C)n5c(c(CCCOc6cc(C)c(Cl)c(C)c6)c6ccc(Cl)c(-c7c(C)nn(C)c7C)c65)C4=O)c32)c1` [Example 456, (R)-7-(7-Chloro-10-(3-(4-chloro-3,5-dimethylphenoxy)propyl)-4-methyl-1-oxo-6-(1,3,5-trimethyl-1H-pyrazol-4-yl)-3,4-dihydropyrazino[1,2-a]indol-2(1H)-yl)-5-methyl-1-((4-methylpyridin-2-yl)methyl)-1H-indole-2-carboxylic acid]: the GI50 in assay [1] was under 200 nM. In addition, at Mcl-1, the Ki was under 1 nM.

Regarding `Cc1cc(N2C[C@@H](C)n3c(c(CCCOc4cc(C)c(Cl)c(C)c4)c4ccc(Cl)c(-c5c(C)nn(C)c5C)c43)C2=O)c2c(c1)cc(C(=O)O)n2Cc1cccc(C)n1` [Example 457, (R)-7-(7-Chloro-10-(3-(4-chloro-3,5-dimethylphenoxy)propyl)-4-methyl-1-oxo-6-(1,3,5-trimethyl-1H-pyrazol-4-yl)-3,4-dihydropyrazino[1,2-a]indol-2(1H)-yl)-5-methyl-1-((6-methylpyridin-2-yl)methyl)-1H-indole-2-carboxylic acid], the GI50 in assay [1] was under 200 nM. The Ki at Mcl-1 is under 1 nM.

Take `Cc1cc(OCCCc2c3n(c4c(-c5c(C)nn(C)c5C)c(Cl)ccc24)[C@H](C)CN(c2cc(OCCN4CCOCC4)cc4cc(C(=O)O)n(C)c24)C3=O)cc(C)c1Cl` [Example 458, (R)-7-(7-Chloro-10-(3-(4-chloro-3,5-dimethylphenoxy)propyl)-4-methyl-1-oxo-6-(1,3,5-trimethyl-1H-pyrazol-4-yl)-3,4-dihydropyrazino[1,2-a]indol-2(1H)-yl)-1-methyl-5-(2-morpholinoethoxy)-1H-indole-2-carboxylic acid]: the GI50 in assay [1] turned out to be 290 nM. Moreover, on Mcl-1, the Ki came to 1.2 nM.

Consider `Cc1cc(OCCCc2c3n(c4c(-c5c(C)nn(C)c5C)c(Cl)ccc24)[C@H](C)CN(c2cc(OCC4COC4)cc4cc(C(=O)O)n(C)c24)C3=O)cc(C)c1Cl` [Example 459, (R)-7-(7-Chloro-10-(3-(4-chloro-3,5-dimethylphenoxy)propyl)-4-methyl-1-oxo-6-(1,3,5-trimethyl-1H-pyrazol-4-yl)-3,4-dihydropyrazino[1,2-a]indol-2(1H)-yl)-1-methyl-5-(oxetan-3-ylmethoxy)-1H-indole-2-carboxylic acid], for which the GI50 in assay [1] amounted to 510 nM. For the same molecule, at Mcl-1, the Ki was 1 nM.

Turning to `Cc1cc(OCCCc2c3n(c4c(-c5c(C)nn(C)c5C)c(Cl)ccc24)[C@H](C)CN(c2cc(OCCN4CCCC4)cc4cc(C(=O)O)n(C)c24)C3=O)cc(C)c1Cl` [Example 460, (R)-7-(7-Chloro-10-(3-(4-chloro-3,5-dimethylphenoxy)propyl)-4-methyl-1-oxo-6-(1,3,5-trimethyl-1H-pyrazol-4-yl)-3,4-dihydropyrazino[1,2-a]indol-2(1H)-yl)-1-methyl-5-(2-(pyrrolidin-1-yl)ethoxy)-1H-indole-2-carboxylic acid], the GI50 in assay [1] came to 420 nM. Further, the Ki on Mcl-1 was found to be 1.7 nM.

Take `COCCOc1cc(N2C[C@@H](C)n3c(c(CCCOc4cc(C)c(Cl)c(C)c4)c4ccc(Cl)c(-c5c(C)nn(C)c5C)c43)C2=O)c2c(c1)cc(C(=O)O)n2C` [Example 461, (R)-7-(7-Chloro-10-(3-(4-chloro-3,5-dimethylphenoxy)propyl)-4-methyl-1-oxo-6-(1,3,5-trimethyl-1H-pyrazol-4-yl)-3,4-dihydropyrazino[1,2-a]indol-2(1H)-yl)-5-(2-methoxyethoxy)-1-methyl-1H-indole-2-carboxylic acid]: in assay [1], the GI50 was under 200 nM. The Ki on Mcl-1 is under 1 nM.

Regarding `Cc1cc(OCCCc2c3n(c4c(-c5c(C)nn(C)c5C)c(Cl)ccc24)[C@H](C)CN(c2cn(C)c4ccc(-c5ncn(CC6CC6)n5)cc24)C3=O)cc(C)c1Cl` [Example 462, (R)-7-Chloro-10-(3-(4-chloro-3,5-dimethylphenoxy)propyl)-2-(5-(1-(cyclopropylmethyl)-1H-1,2,4-triazol-3-yl)-1-methyl-1H-indol-3-yl)-4-methyl-6-(1,3,5-trimethyl-1H-pyrazol-4-yl)-3,4-dihydropyrazino[1,2-a]indol-1(2H)-one], in assay [1], the GI50 stood at 990 nM. Moreover, on Mcl-1, the Ki amounted to 2 nM.

Turning to `Cc1cc(N2C[C@@H](C)n3c(c(CCCOc4cc(C)c(Cl)c(C)c4)c4ccc(Cl)c(-c5c(C)nn(CCN6CCCC6)c5C)c43)C2=O)c2c(c1)cc(C(=O)O)n2C` [Example 463, (R)-7-(7-Chloro-10-(3-(4-chloro-3,5-dimethylphenoxy)propyl)-6-(3,5-dimethyl-1-(2-(pyrrolidin-1-yl)ethyl)-1H-pyrazol-4-yl)-4-methyl-1-oxo-3,4-dihydropyrazino[1,2-a]indol-2(1H)-yl)-1,5-dimethyl-1H-indole-2-carboxylic acid], in assay [1], the GI50 stood at 290 nM. The Ki on Mcl-1 worked out at 2.1 nM.

For `COc1ccnc(-c2ccc3c(c2)c(N2C[C@@H](C)n4c(c(CCCOc5cc(C)c(Cl)c(C)c5)c5ccc(Cl)c(-c6c(C)nn(C)c6C)c54)C2=O)cn3C)n1` [Example 464, (R)-7-Chloro-10-(3-(4-chloro-3,5-dimethylphenoxy)propyl)-2-(5-(4-methoxypyrimidin-2-yl)-1-methyl-1H-indol-3-yl)-4-methyl-6-(1,3,5-trimethyl-1H-pyrazol-4-yl)-3,4-dihydropyrazino[1,2-a]indol-1(2H)-one], the GI50 in assay [1] was 480 nM. In addition, the Ki at Mcl-1 amounted to 3.5 nM.

`COc1cnc(-c2ccc3c(c2)c(N2C[C@@H](C)n4c(c(CCCOc5cc(C)c(Cl)c(C)c5)c5ccc(Cl)c(-c6c(C)nn(C)c6C)c54)C2=O)cn3C)nc1` [Example 465, (R)-7-Chloro-10-(3-(4-chloro-3,5-dimethylphenoxy)propyl)-2-(5-(5-methoxypyrimidin-2-yl)-1-methyl-1H-indol-3-yl)-4-methyl-6-(1,3,5-trimethyl-1H-pyrazol-4-yl)-3,4-dihydropyrazino[1,2-a]indol-1(2H)-one]: the GI50 in assay [1] came out at 690 nM. Besides, the Ki at Mcl-1 came out at 1.5 nM.

For the molecule `COc1ccc(N2C[C@@H](C)n3c(c(CCCOc4cc(C)c(Cl)c(C)c4)c4ccc(Cl)c(-c5c(C)nn(C)c5C)c43)C2=O)c2c1cc(C(N)=O)n2Cc1ccccn1` [Example 466, (R)-7-(7-Chloro-10-(3-(4-chloro-3,5-dimethylphenoxy)propyl)-4-methyl-1-oxo-6-(1,3,5-trimethyl-1H-pyrazol-4-yl)-3,4-dihydropyrazino[1,2-a]indol-2(1H)-yl)-4-methoxy-1-(pyridin-2-ylmethyl)-1H-indole-2-carboxamide], in assay [1], the GI50 turned out to be 300 nM. Also, at Mcl-1, the Ki is 1.8 nM.

The record behind these values is patent US11596639B2, “Substituted indole Mcl-1 inhibitors” (Vanderbilt University, priority 2016, dated 2023).
